Laboratory results taken from ChEMBL document CHEMBL5696443 (Clin Cancer Res, 2016).
Activity calls are given as the source filed them. The rule behind the calls is not given here.

Tests used:
[1] = Average plasma concentration in human at 90 mg administered once a day; type: ADME; conditions: in vivo
[2] = target: Serine/threonine-protein kinase Nek7 (Homo sapiens) (UniProt Q8TDX7); test: Inhibition of human NEK7 at 1 uM using casein as substrate in presence of [gamma33P]-ATP by HotSpot assay relative to control
Chain of Serine/threonine-protein kinase Nek7 (Homo sapiens) (Q8TDX7 whole entry, looked up): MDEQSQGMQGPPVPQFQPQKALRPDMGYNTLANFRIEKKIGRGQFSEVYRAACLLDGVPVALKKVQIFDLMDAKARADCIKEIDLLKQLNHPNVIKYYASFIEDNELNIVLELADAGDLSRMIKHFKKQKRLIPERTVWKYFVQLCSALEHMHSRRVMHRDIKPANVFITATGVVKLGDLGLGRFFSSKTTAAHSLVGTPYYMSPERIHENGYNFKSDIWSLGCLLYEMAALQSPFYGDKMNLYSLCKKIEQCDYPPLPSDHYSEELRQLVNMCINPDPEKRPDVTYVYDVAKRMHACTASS

[3] = system: Protein cereblon/ALK tyrosine kinase receptor/Echinoderm microtubule-associated protein-like 4 (Homo sapiens), Q9UM73+Q9HC35+Q96SW2 [UNDEFINED MUTATION]; conditions: BaF3, time 72.0 hrs
[4] = system: EML4-ALK (Homo sapiens), Q9UM73+Q9HC35 [S1206Y]; conditions: BaF3, time 3-5 weeks
[5] = system: EML4-ALK (Homo sapiens), Q9UM73+Q9HC35 [F1174C]; conditions: BaF3, dose 200.0 nmol/L, time 3-5 weeks
[6] = system: EML4-ALK (Homo sapiens), Q9UM73+Q9HC35 [D1203N]; conditions: BaF3, dose 500.0 nmol/L, time 3-5 weeks
[7] = system: EML4-ALK (Homo sapiens), Q9UM73+Q9HC35 [G1202R]; conditions: BaF3, dose 500.0 nmol/L, time 3-5 weeks
[8] = target: Receptor tyrosine-protein kinase erbB-4 (Homo sapiens, UniProt Q15303); test: Inhibition of human ERBB4 using poly (Glu, Tyr)4:1 as substrate in presence of [gamma33P]-ATP by HotSpot assay
[9] = target: Proto-oncogene tyrosine-protein kinase receptor Ret (Homo sapiens, UniProt P07949, V804L); test: Inhibition of human RET V804L mutant using RRRRRRRRRRRVYSTDYYRLFNPS as substrate in presence of [gamma33P]-ATP by HotSpot assay
[10] = target: Protein kinase C epsilon type (Homo sapiens) (UniProt Q02156); test: Inhibition of human PKCepsilon at 1 uM using ERMRPRKRQGSVRRRV as substrate in presence of [gamma33P]-ATP by HotSpot assay relative to control
[11] = target: Serine/threonine-protein kinase Nek1 (Homo sapiens) (UniProt Q96PY6); test: Inhibition of human NEK1 at 1 uM using MBP as substrate in presence of [gamma33P]-ATP by HotSpot assay relative to control
Chain of Serine/threonine-protein kinase Nek1 (Homo sapiens) (Q96PY6 whole entry): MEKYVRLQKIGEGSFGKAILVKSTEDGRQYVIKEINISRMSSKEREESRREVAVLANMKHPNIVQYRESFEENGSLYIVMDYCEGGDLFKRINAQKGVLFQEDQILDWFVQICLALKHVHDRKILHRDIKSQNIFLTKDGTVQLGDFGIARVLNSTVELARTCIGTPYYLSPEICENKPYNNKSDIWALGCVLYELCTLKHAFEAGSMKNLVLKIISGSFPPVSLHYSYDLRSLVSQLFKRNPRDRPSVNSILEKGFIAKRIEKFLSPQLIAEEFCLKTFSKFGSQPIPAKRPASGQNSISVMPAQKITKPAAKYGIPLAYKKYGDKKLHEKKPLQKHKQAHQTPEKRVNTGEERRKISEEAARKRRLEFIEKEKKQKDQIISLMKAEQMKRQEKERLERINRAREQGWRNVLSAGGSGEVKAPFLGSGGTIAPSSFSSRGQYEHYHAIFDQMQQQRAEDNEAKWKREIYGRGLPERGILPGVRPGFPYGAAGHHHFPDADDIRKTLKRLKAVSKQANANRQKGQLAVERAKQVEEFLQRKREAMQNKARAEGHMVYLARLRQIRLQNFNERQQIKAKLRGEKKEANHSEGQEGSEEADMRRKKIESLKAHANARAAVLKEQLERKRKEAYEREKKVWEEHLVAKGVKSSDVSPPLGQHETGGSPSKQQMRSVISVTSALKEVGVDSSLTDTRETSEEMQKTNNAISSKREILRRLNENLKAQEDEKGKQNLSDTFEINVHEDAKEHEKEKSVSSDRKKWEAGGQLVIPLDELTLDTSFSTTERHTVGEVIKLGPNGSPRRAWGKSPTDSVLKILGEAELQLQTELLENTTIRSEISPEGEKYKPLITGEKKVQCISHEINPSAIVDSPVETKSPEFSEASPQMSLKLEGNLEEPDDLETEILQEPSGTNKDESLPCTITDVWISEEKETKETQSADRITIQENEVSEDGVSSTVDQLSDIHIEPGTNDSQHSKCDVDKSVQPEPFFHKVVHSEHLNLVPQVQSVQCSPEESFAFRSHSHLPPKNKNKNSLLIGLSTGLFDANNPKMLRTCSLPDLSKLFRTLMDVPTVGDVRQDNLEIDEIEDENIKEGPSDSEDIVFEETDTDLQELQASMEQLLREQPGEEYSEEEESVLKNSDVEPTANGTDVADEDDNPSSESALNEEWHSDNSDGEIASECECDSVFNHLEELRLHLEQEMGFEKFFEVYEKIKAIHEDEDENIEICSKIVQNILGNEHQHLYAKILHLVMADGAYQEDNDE

NCI-H838 = conditions: time 72 hrs
[12] = target: Lymphokine-activated killer T-cell-originated protein kinase (Homo sapiens) (UniProt Q96KB5); test: Inhibition of human PBK at 1 uM using MBP as substrate in presence of [gamma33P]-ATP by HotSpot assay relative to control
Chain of Lymphokine-activated killer T-cell-originated protein kinase (Homo sapiens) (Q96KB5 whole entry): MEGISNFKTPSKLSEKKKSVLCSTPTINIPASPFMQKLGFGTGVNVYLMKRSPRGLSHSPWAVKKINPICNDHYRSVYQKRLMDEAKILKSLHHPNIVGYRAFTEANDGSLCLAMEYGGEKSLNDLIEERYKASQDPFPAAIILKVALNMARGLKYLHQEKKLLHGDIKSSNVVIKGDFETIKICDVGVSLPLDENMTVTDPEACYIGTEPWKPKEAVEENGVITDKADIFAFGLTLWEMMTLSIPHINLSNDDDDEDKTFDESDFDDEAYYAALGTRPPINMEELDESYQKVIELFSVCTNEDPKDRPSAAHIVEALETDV

[13] = target: Protein kinase C beta type (Homo sapiens) (UniProt P05771); test: Inhibition of human PKCb2 at 1 uM using ERMRPRKRQGSVRRRV as substrate in presence of [gamma33P]-ATP by HotSpot assay relative to control
Chain of Protein kinase C beta type (Homo sapiens) (P05771 2-671 limits assumed): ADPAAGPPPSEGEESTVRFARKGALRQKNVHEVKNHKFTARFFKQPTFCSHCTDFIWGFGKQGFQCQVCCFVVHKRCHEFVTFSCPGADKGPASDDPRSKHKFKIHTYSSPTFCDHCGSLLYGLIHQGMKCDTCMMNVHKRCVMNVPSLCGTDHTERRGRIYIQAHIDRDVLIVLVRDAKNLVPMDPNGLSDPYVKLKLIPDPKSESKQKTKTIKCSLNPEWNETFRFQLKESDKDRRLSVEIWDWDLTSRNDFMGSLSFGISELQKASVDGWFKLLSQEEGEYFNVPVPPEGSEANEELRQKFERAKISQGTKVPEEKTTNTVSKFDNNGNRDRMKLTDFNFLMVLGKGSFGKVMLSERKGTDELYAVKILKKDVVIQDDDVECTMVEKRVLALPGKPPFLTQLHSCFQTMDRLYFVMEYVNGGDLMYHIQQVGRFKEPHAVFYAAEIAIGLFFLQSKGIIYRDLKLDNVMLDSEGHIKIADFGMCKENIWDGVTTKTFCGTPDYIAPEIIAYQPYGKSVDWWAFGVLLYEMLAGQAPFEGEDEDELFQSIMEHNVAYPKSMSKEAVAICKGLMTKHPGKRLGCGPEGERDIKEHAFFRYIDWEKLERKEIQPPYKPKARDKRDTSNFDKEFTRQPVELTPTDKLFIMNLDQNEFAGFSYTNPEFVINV

[14] = target: Protein kinase C delta type (Homo sapiens) (UniProt Q05655); test: Inhibition of human PRKCD at 1 uM using ERMRPRKRQGSVRRRV as substrate in presence of [gamma33P]-ATP by HotSpot assay relative to control
Chain of Protein kinase C delta type (Homo sapiens) (Q05655 whole entry, looked up): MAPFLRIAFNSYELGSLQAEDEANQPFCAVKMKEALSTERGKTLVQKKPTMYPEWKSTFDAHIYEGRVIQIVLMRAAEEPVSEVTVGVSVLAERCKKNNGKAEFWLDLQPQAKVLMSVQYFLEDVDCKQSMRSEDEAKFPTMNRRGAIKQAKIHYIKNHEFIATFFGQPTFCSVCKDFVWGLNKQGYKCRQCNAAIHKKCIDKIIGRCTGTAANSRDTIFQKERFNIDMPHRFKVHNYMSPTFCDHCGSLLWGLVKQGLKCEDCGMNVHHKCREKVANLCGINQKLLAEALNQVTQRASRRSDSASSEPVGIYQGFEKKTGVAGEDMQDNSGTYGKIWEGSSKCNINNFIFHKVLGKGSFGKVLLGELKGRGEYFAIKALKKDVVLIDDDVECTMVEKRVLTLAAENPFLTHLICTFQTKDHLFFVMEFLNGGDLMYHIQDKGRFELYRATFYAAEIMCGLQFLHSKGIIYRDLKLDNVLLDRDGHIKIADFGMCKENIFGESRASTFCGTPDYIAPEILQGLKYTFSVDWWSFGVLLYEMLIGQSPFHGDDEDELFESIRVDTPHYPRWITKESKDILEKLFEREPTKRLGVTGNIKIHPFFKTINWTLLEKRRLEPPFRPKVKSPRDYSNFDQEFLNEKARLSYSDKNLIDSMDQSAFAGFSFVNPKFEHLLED

[15] = target: Glycogen synthase kinase-3 alpha (Homo sapiens) (UniProt P49840); test: Inhibition of human GSK3alpha at 1 uM using YRRAAVPPSPSLSRHSSPHQ(pS)EDEEE as substrate in presence of [gamma33P]-ATP by HotSpot assay relative to control
Chain of Glycogen synthase kinase-3 alpha (Homo sapiens) (P49840 2-483 limits assumed): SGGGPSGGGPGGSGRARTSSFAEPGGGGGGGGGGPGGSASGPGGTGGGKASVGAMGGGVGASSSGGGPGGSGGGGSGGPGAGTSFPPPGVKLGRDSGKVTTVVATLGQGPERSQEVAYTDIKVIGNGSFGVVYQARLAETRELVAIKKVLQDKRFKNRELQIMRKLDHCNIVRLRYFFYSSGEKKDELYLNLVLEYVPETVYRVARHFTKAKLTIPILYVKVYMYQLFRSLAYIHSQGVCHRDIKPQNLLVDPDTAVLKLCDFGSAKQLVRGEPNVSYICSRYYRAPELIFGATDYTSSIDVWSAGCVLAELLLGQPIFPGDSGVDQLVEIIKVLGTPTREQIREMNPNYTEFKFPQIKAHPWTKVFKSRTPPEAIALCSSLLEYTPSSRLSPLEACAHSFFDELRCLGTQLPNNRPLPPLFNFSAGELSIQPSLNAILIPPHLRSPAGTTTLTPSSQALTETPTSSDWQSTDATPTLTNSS

[16] = target: Serine/threonine-protein kinase Nek9 (Homo sapiens, UniProt Q8TD19); test: Inhibition of human NEK9 using MBP as substrate in presence of [gamma33P]-ATP by HotSpot assay
[17] = target: Casein kinase I isoform gamma-1 (Homo sapiens) (UniProt Q9HCP0); test: Inhibition of human CSNK1G1 at 1 uM using KRRRAL[pS]VASLPGL as substrate in presence of [gamma33P]-ATP by HotSpot assay relative to control
[18] = target: Serine/threonine-protein kinase 26 (Homo sapiens) (UniProt Q9P289); test: Inhibition of human STK26 at 1 uM using MBP as substrate in presence of [gamma33P]-ATP by HotSpot assay relative to control
Chain of Serine/threonine-protein kinase 26 (Homo sapiens) (Q9P289 2-416 limits assumed): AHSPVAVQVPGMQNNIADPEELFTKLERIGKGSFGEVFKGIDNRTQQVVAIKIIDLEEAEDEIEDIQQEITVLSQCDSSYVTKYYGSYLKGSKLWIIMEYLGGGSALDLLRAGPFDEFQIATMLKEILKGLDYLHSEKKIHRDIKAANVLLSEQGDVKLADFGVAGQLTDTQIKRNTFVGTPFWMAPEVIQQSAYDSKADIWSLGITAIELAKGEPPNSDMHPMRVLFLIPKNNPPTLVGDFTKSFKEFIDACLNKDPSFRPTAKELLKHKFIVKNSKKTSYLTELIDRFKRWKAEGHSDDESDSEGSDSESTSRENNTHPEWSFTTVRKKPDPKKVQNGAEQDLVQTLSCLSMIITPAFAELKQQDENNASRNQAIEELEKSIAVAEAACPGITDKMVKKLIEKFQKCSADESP

[19] = system: Serine/threonine-protein kinase A-Raf (Homo sapiens), P10398 [Y301D,Y302D]; test: Inhibition of human ARAF Y301D/Y302D double mutant at 1 uM using MEK1 as substrate in presence of [gamma33P]-ATP by HotSpot assay relative to control
Mus musculus = test: In vivo inhibition of ALK signaling in SCID Beige mouse xenografted with ALK positive human KARPAS-299 cells assessed as reduction in phosphorylated ERK1/2 level at 10 to 50 mg/kg, po administered as single dose and measured at 6 to 24 hrs by immunoblot analysis; type: functional, organism-based; conditions: dose 10-50 mg/kg, time 6-24 hrs
[20] = target: Cyclin-dependent kinase 1/cyclin B1 (Homo sapiens) (UniProt P06493+P14635); test: Inhibition of human CDK1/CyclinB at 1 uM using RB protein as substrate in presence of [gamma33P]-ATP by HotSpot assay relative to control; type: protein-complex assay
Aurora kinase B = Aurora kinase B (Homo sapiens, UniProt Q96GD4); test: Inhibition of human AURKB using H-LRRASLG as substrate in presence of [gamma33P]-ATP by HotSpot assay
Chain of Aurora kinase B (Q96GD4 whole entry): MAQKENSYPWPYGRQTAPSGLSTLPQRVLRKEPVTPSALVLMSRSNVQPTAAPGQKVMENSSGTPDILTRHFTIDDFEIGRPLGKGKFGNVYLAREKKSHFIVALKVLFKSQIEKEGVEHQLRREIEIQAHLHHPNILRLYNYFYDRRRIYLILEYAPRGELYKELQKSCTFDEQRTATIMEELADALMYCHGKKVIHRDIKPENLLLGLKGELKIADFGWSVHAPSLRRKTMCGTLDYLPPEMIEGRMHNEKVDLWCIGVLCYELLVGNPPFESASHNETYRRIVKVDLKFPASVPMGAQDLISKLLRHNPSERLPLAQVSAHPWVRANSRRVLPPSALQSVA

[21] = target: Tyrosine-protein kinase HCK (Homo sapiens, UniProt P08631); test: Inhibition of human HCK using KVEKIGEGTYGVVYK as substrate in presence of [gamma33P]-ATP by HotSpot assay
[22] = target: Fibroblast growth factor receptor 3 (Homo sapiens, UniProt P22607); test: Inhibition of human FGFR3 using poly (Glu, Tyr)4:1 as substrate in presence of [gamma33P]-ATP by HotSpot assay
Angiopoietin-1 receptor = Angiopoietin-1 receptor (Homo sapiens, UniProt Q02763); test: Inhibition of human TEK using poly (Glu, Tyr)4:1 as substrate in presence of [gamma33P]-ATP by HotSpot assay
[23] = target: Casein kinase I isoform delta (Homo sapiens) (UniProt P48730); test: Inhibition of human CK1delta at 1 uM using KRRRAL[pS]VASLPGL as substrate in presence of [gamma33P]-ATP by HotSpot assay relative to control
[24] = target: Serine/threonine-protein kinase STK11 (Homo sapiens) (UniProt Q15831); test: Inhibition of human STK11 at 1 uM using LSNLYHQGKFLQTFCGSPLYRRR as substrate in presence of [gamma33P]-ATP by HotSpot assay relative to control
Chain of Serine/threonine-protein kinase STK11 (Homo sapiens) (Q15831 whole entry): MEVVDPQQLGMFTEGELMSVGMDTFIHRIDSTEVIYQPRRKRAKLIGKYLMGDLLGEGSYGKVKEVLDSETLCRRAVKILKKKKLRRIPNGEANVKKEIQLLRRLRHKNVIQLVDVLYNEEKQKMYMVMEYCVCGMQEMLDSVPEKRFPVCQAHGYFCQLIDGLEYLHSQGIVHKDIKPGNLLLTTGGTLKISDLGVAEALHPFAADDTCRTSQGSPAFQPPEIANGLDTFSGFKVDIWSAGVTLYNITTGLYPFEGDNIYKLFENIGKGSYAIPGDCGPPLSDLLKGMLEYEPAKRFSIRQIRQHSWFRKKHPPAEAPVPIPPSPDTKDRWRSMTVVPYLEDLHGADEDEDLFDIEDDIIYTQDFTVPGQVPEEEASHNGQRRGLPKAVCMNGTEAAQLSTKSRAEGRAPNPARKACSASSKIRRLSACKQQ

[25] = target: Ephrin type-A receptor 2 (Homo sapiens) (UniProt P29317); test: Inhibition of human EPHA2 at 1 uM using poly (Glu, Tyr)4:1 as substrate in presence of [gamma33P]-ATP by HotSpot assay relative to control

Compound: COc1cc(N2CCC(N3CCN(C)CC3)CC2)ccc1Nc1ncc(Cl)c(Nc2ccccc2P(C)(C)=O)n1 [BRIGATINIB]
- Cave [1]: 582 nM
- inhibition [2]: < 90%
- IC90 [3]: 38 nM
- IC90 [4]: 109 nM
- inhibition [5]: inactive
- inhibition [6]: Active
- inhibition [7]: Active
- IC50 [8]: 27 nM
- IC50 [9]: 27 nM
- inhibition [10]: < 90%
- inhibition [11]: < 90%
- GI50 (NCI-H838): 503 nM
- inhibition [12]: < 90%
- inhibition [13]: < 90%
- inhibition [14]: < 90%
- inhibition [15]: < 90%
- IC50 [16]: > 1000 nM
- inhibition [17]: < 90%
- inhibition [18]: < 90%
- inhibition [19]: < 90%
- Activity (Mus musculus): Active
- inhibition [20]: < 90%
- IC50 (Aurora kinase B): > 1000 nM
- IC50 [21]: 198 nM
- IC50 [22]: 358 nM
- IC50 (Angiopoietin-1 receptor): > 1000 nM
- inhibition [23]: < 90%
- inhibition [24]: < 90%
- inhibition [25]: < 90%
